pIC50, pKi: −log10 of the molar value.
Legend:
[1] = target: T1, Human adrenergic α2A receptor (Homo sapiens, UniProt P08913); assay: β-Arrestin GPCR functional assay, adrenergic α2A (Protocol B); type: cell-based; details: for pIC50: β-arrestin, antagonist vs nor-epinephrine EC80
T1 sequence (P08913 1-465): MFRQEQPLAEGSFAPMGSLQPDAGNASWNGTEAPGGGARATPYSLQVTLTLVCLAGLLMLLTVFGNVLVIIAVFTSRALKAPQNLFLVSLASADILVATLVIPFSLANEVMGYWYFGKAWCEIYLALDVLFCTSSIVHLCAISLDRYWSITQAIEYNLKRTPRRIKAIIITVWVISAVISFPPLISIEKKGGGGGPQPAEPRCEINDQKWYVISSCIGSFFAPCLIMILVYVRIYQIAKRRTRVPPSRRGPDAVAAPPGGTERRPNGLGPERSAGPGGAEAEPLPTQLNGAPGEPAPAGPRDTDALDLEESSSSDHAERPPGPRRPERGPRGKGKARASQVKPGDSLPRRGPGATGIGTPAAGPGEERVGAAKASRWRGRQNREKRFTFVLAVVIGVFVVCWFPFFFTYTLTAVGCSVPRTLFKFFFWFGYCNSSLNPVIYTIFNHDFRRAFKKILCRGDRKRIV
How it was run: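 PathHunter CHO cells overexpressing human α2A receptor were preincubated with compounds (1% DMSO final) for 30 min at 37 °C, then stimulated 90 min with norepinephrine at EC80 (270 nM). β-Arrestin recruitment read by chemiluminescence after 60 min detection; reported as % inhibition or IC50.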

[2] = target: T2, Human adrenergic α2B receptor (Homo sapiens, UniProt P18089); assay: β-Arrestin GPCR functional assay, adrenergic α2B (Protocol B); type: cell-based; details: for pIC50: β-arrestin, antagonist vs nor-epinephrine EC80, read-out: IC50 Adrenergic α2B
T2 sequence (P18089 1-450): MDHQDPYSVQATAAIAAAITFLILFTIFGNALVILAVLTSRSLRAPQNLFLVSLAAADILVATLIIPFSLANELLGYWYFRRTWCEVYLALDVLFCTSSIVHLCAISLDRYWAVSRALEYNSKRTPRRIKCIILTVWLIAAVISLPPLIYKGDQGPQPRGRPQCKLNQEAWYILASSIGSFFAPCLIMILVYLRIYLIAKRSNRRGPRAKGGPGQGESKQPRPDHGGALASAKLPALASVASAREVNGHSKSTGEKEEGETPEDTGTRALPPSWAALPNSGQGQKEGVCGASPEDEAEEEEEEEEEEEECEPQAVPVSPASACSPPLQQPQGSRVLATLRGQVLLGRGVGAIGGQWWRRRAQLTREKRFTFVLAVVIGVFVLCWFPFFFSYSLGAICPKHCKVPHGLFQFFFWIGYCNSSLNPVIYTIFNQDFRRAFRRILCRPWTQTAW
How it was run: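 CHO cells overexpressing human α2B (PathHunter β-arrestin), 12,000 per well, 24 h at 37° C; compounds in 1% DMSO 30 min, then 50 nM norepinephrine (EC80) 90 min at 37° C.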

[3] = target: T3, Human adrenergic α1B receptor (Homo sapiens, UniProt P35368); assay: Radioligand binding, adrenergic α1B (Protocol Group B); set-up: purchased Milipore (Millipore); details: Protocol Group B; for inhibition at 0.1 µM / Percentage inhibition of ligand binding, Adrenergic α1B (0.1 μM): 0.1 μM compound; for inhibition at 0.1 µM: read-out: Percentage inhibition of ligand binding, Adrenergic α1B (0.1 μM); for inhibition at 0.3 µM / Percentage inhibition of ligand binding, Adrenergic α1B (0.3 μM): 0.3 μM compound; for inhibition at 0.3 µM: read-out: Percentage inhibition of ligand binding, Adrenergic α1B (0.3 μM); for pKi: estimated Ki
T3 sequence (P35368 1-520): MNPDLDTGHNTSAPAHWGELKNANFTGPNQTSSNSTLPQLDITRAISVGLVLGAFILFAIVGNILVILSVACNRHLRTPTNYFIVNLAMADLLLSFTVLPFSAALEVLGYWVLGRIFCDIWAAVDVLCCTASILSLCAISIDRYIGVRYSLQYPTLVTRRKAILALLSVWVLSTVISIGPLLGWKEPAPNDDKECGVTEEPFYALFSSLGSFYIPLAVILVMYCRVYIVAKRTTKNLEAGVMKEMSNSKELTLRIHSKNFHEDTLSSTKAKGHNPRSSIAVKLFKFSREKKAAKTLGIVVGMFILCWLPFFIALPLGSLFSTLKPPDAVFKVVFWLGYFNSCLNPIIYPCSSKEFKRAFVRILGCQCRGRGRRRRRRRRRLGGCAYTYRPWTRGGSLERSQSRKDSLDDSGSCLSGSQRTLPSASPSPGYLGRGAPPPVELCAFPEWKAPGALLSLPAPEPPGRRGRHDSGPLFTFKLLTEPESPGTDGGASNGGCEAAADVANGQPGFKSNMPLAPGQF
How it was run: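 Recombinant human α1B membranes incubated with test compound and 0.3 nM [3H]prazosin, 60 min at 25 °C, in 50 mM Tris-HCl pH 7.4, 10 mM MgCl2, 1 mM EDTA; nonspecific binding with 10 μM prazosin. Filter-bound radioactivity counted; values are % inhibition of specific binding or estimated Ki.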

[4] = 10 nM compound, nor-epinephrine at EC80 (50 nM)

| SMILES | pIC50 [1] | pIC50 [2] | inhibition at 0.3 µM [3] [%] | pKi [3] | Percentage inhibition of ligand binding, Adrenergic α1B (0.1 μM) [3] [%] | Percentage inhibition of ligand binding, Adrenergic α1B (0.3 μM) [3] [%] | further results |
| --- | --- | --- | --- | --- | --- | --- | --- |
| Cc1ccc2c(c1)c1c(n2CC(C)(O)c2ccnc(F)c2)CCN2CCCC12 (single isomer, unassigned) [48a] | 5.95 | 7.70 | 94 | 8.09 |  |  | inhibition at 0.1 µM [3]: 85% |
| OC(Cn1c2c(c3cc(Cl)cc(F)c31)C1CCCN1CC2)c1ccncc1 (single isomer, unassigned) [135a] | 5.36 | 7.27 | 92 | 7.64 |  |  | inhibition at 0.1 µM [3]: 71% |
| CC(O)(Cn1c2c(c3cc(F)ccc31)C1CCCN1CC2)c1ccncc1 (single isomer, unassigned) [31b] | 4.95 | 7.18 |  | 6.87 | 30 | 50 |  |
| Cc1cc2c3c(n(CC(C)(O)c4ccncc4)c2cc1Cl)CCN1CCCC31 (single isomer, unassigned) [50b] | 6.25 | 7.92 |  | 8.16 | 80 | 93 |  |
| Cc1ccc2c(c1)c1c(n2CC(OCC2CCC2)c2ccncc2)CCN2CCCC12 (single isomer, unassigned) [138a] | 6.38 | 7.76 | 88 | 8.62 | 84 |  |  |
| Cc1ccc2c(c1)c1c(n2CC(OC(=O)N2CCCC2)c2ccncc2)CCN(C)C1 (single isomer, unassigned) [4b] | 5.22 | 6.79 |  | 6.57 |  |  |  |

Continued, in another order:

| pIC50 [1] | pIC50 [2] | inhibition at 0.3 µM [3] [%] | pKi [3] | Percentage inhibition of ligand binding, Adrenergic α1B (0.1 μM) [3] [%] | Percentage inhibition of ligand binding, Adrenergic α1B (0.3 μM) [3] [%] | SMILES | further results |
| --- | --- | --- | --- | --- | --- | --- | --- |
| 6.17 | 7.92 |  | 7.37 | 47 | 79 | Cc1cc(F)c2c(c1)c1c(n2CC(C)(O)c2cccnc2)CCN2CCCC12 (stereo not shown) [Compound No. 79a] |  |
| 5.88 | 7.69 |  | 7.85 | 57 | 80 | Cc1ccc2c(c1)c1c(n2CC(OCC2CCC2)c2ccncc2)CCN2CCCC12 (single isomer, unassigned) [138b] |  |
| 5.80 | 7.17 | 91 | 7.80 |  |  | Cc1ccc2c(c1)c1c(n2CC(OCC2CCC2)c2ccncc2)CCN(C)C1 (single isomer, unassigned) [59a] | inhibition at 0.1 µM [3]: 69% |
| 6.06 | 7.79 | 81 | 7.68 |  |  | Cc1cc(Cl)c2c(c1)c1c(n2CC(C)(O)c2ccncc2)CCN2CCCC12 (single isomer, unassigned) [91a] | inhibition at 0.1 µM [3]: 59% |
| 6.37 | 7.85 |  | 8.35 | 85 | 95 | Cc1ccc2c(c1)c1c(n2CC(O)c2ccncc2F)CCN2CCCC12 (single isomer, unassigned) [14b] | Percentage inhibition, Adrenergic α2A ([1]; 0.1 μM compound, nor-epinephrine at EC80 (270 nM)): 13%; Percentage inhibition, Adrenergic α2A ([1]; 0.3 μM compound, nor-epinephrine at EC80 (270 nM)): 44%; Percentage inhibition, Adrenergic α2B [2, 4]: 11%; Percentage inhibition, Adrenergic α2B ([2]; 30 nM compound, nor-epinephrine at EC80 (50 nM)): 93%; Percentage inhibition, Adrenergic α2B ([2]; 0.1 μM compound, nor-epinephrine at EC80 (50 nM)): 97% |
| 6.73 | 8.18 |  | 8.14 | 74 | 94 | Cc1cc(F)c2c(c1)c1c(n2CC(O)c2ccncc2)CCN2CCCC12 (single isomer, unassigned) [137b] |  |
| 5.28 | 7.39 |  | 6.70 | 27 | 45 | CCCOC(Cn1c2c(c3cc(C)ccc31)CN(C)CC2)c1ccncc1 (single isomer, unassigned) [42b] |  |
| 5.65 | 7.52 |  | 8.00 |  |  | Cc1ccc2c(c1)c1c(n2CC(C)(O)c2ccncc2)CCN2CCCC12 (single isomer, unassigned) [13a] | inhibition at 0.1 µM ([1]; 0.1 μM compound, nor-epinephrine at EC80 (270 nM), read-out: Percentage inhibition, Adrenergic α2A): 14%; inhibition at 0.3 µM ([1]; 0.3 μM compound, nor-epinephrine at EC80 (270 nM), read-out: Percentage inhibition, Adrenergic α2A): 21%; Percentage inhibition, Adrenergic α2B [2, 4]: 9%; inhibition at 0.03 µM ([2]; 30 nM compound, nor-epinephrine at EC80 (50 nM), read-out: Percentage inhibition, Adrenergic α2B): 29%; inhibition at 0.1 µM ([2]; 0.1 μM compound, nor-epinephrine at EC80 (50 nM), read-out: Percentage inhibition, Adrenergic α2B): 88% |

— patent US20150315188A1, “COMPOUNDS AND METHODS FOR TREATMENT OF HYPERTENSION” (MEDIVATION TECHNOLOGIES, INC., priority 2012, published 2015)
